In patent publication US9028845B2, “Chimeric immunomodulatory compounds and methods of using the same-IV” (Dynavax Technologies Corporation, priority 2001, dated 2015):
Entries after “also recorded” stand apart in the source; their conditions may differ. Marks after values point to notes of the source that are not given here.

Tests used:
[1] = system: hepatitis B surface antigen (HBsAg); conditions: in vivo
[2] = system: PBMCs; experiment: Human PBMC proliferation assay (3H-thymidine incorporation); type: cell-based; conditions: Experiment A; for mean cpm: 2 μg/ml
[3] = system: CD19+ B cells; experiment: Human B cell proliferation assay (3H-thymidine incorporation); conditions: 2 μg/ml; for cpm1 / cpm2 / cpm3 / mean cpm / mean of both: B cells
Description: Purified human B cells from 2 donors were stimulated with 5 μg/ml P-6 or CIC for 96 h. Proliferation was assessed by ^3H-thymidine incorporation.
A CIC is considered to induce “little” human B cell proliferation if B cell proliferation in the presence of the CIC is between greater than 15 to about 30% of P-6.
Human PBMCs were isolated from heparanized blood from two normal subjects. Some PBMCs were held in reserve while the remainder was incubated with CD19+ MACS beads (Miltenyi Biotec). These cells were then passed through a magnet, separating the CD19+ B cells through positive selection. […] B cells were then cultured at 1×10^5/200 μl/well in 96-well round-bottomed plates. In some cases, PBMCs were also cultured, but at 2×10^5/200 μl/well. Cells were stimulated in triplicate with 2 μg/ml polynucleotide or CIC. The culture period was 48 hours at 37° C. At the end of the culture period, the plates were pulsed with ^3H-thymidine, 1 μCi/well, and incubated for an additional 8 hours. Then the plates were harvested using standard liquid scintillation techniques and data was collected in counts per minutes (cpm).

[4] = system: human PBMCs; experiment: Human PBMC cytokine response assay (IFN-γ and IFN-α in cell-free medium by ELISA), with or without cPLGA; type: cell-based;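 as to IFN-α (pg/ml) mean: 20 µg/mL compound for 24 hours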;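 as to IFN-γ (pg/ml) mean: 20 µg/mL compound for 24 hours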
[5] = donor 28066, 20 ug/ml, 24 h, + PLGA = premixed with 100 μg/ml cPLGA
[6] = donor 28067, 20 ug/ml, 24 h, + PLGA = premixed with 100 μg/ml cPLGA
[7] = donor 28068, 20 ug/ml, 24 h, + PLGA = premixed with 100 μg/ml cPLGA
[8] = mean of Donors 1-2, 20 μg/ml, 24 h
[9] = mean of Donors 9-12, 20 μg/ml, 24 h
[10] = mean of donors 110, 112, 119, 120, Table 14
[11] = mean of donors 28065-28068, 20 ug/ml, 24 h, + PLGA = premixed with 100 μg/ml cPLGA
[12] = mean of donors 28185-28188, Table 15

Substance: 5′-TCGTCGA-3′-HEG-5′-ACGTTCG-3′-HEG-5′-AGATGAT-3′ [Compound C-8]
- Anti-HBsAg (mIU/ml) post-first, Mean [1]: 22 mIU/ml
- Anti-HBsAg (mIU/ml) post-second, Mean [1]: 9294** mIU/ml
- cpm1 ([2]; Donor 146, 2 μg/ml): 47202 cpm
- cpm2 ([2]; Donor 146, 2 μg/ml): 40790 cpm
- cpm3 ([2]; Donor 146, 2 μg/ml): 44811 cpm
- mean cpm ([2]; Donor 146 mean): 44268 cpm
- cpm1 ([2]; Donor 147, 2 μg/ml): 38845 cpm
- cpm2 ([2]; Donor 147, 2 μg/ml): 39733 cpm
- cpm3 ([2]; Donor 147, 2 μg/ml): 27981 cpm
- mean cpm ([2]; Donor 147 mean): 35520 cpm
- mean of both ([2]; mean of Donors 146 and 147, 2 μg/ml): 39894 cpm
- B cell proliferation, in words ([3]; 48 h plus 8 h 3H-thymidine pulse): cause B cells to proliferate
- cpm1 ([3]; Donor 146, Experiment A): 23815 cpm
- cpm2 ([3]; Donor 146, Experiment A): 30066 cpm
- cpm3 ([3]; Donor 146, Experiment A): 22969 cpm
- mean cpm ([3]; Donor 146 mean, Experiment A): 25617 cpm
- cpm1 ([3]; Donor 147, Experiment A): 20914 cpm
- cpm2 ([3]; Donor 147, Experiment A): 22370 cpm
- cpm3 ([3]; Donor 147, Experiment A): 23659 cpm
- mean cpm ([3]; Donor 147 mean, Experiment A): 22314 cpm
- cpm1 ([3]; donor 121, Experiment B): 2604 cpm
- cpm2 ([3]; donor 121, Experiment B): 12078 cpm
- cpm3 ([3]; donor 121, Experiment B): 17696 cpm
- mean cpm ([3]; donor 121 mean, Experiment B): 10793 cpm
- cpm1 ([3]; donor 194, Experiment B): 9333 cpm
- cpm2 ([3]; donor 194, Experiment B): 9391 cpm
- cpm3 ([3]; donor 194, Experiment B): 7602 cpm
- mean cpm ([3]; donor 194 mean, Experiment B): 8775 cpm
- mean of both ([3]; mean of Donors 146 and 147, Experiment A): 23966 cpm
- mean of both ([3]; mean of donors 121 and 194, Experiment B): 9784 cpm
- IFN-α (pg/ml) Donor 1 ([4]; Donor 1, 20 μg/ml, 24 h): 1609 pg/mL
- IFN-γ (pg/ml) Donor 1 ([4]; Donor 1, 20 μg/ml, 24 h): 1916 pg/mL
- IFN-α (pg/ml) Donor 2 ([4]; Donor 2, 20 μg/ml, 24 h): 44 pg/mL
- IFN-γ (pg/ml) Donor 2 ([4]; Donor 2, 20 μg/ml, 24 h): 696 pg/mL
- IFN-α Donor 9 ([4]; Donor 9, 20 μg/ml, 24 h): 58
- IFN-γ Donor 9 ([4]; Donor 9, 20 μg/ml, 24 h): 312
- IFN-α Donor 10 ([4]; Donor 10, 20 μg/ml, 24 h): 30
- IFN-γ Donor 10 ([4]; Donor 10, 20 μg/ml, 24 h): 35
- IFN-α Donor 11 ([4]; Donor 11, 20 μg/ml, 24 h): 18
- IFN-γ Donor 11 ([4]; Donor 11, 20 μg/ml, 24 h): 31
- IFN-α Donor 12 ([4]; Donor 12, 20 μg/ml, 24 h): 49
- IFN-γ Donor 12 ([4]; Donor 12, 20 μg/ml, 24 h): 28
- IFN-α ([4]; Table 9, donor 28089): 21 pg/mL
- IFN-γ ([4]; Table 9, donor 28089): 62 pg/mL
- IFN-α ([4]; Table 9, donor 28090): 124 pg/mL
- IFN-γ ([4]; Table 9, donor 28090): 52 pg/mL
- IFN-α ([4]; Table 9, donor 28098): 314 pg/mL
- IFN-γ ([4]; Table 9, donor 28098): 205 pg/mL
- IFN-α ([4]; Table 9, donor 28099): 362 pg/mL
- IFN-γ ([4]; Table 9, donor 28099): 116 pg/mL
- IFN-α mean ([4]; Table 9, mean of donors): 205 pg/mL
- IFN-γ mean ([4]; Table 9, mean of donors): 109 pg/mL
- IFN-α ([4]; Table 10, donor 28042): 20 pg/mL
- IFN-γ ([4]; Table 10, donor 28042): 468 pg/mL
- IFN-α ([4]; Table 10, donor 28043): 51 pg/mL
- IFN-γ ([4]; Table 10, donor 28043): 939 pg/mL
- IFN-α ([4]; Table 10, donor 28044): 32 pg/mL
- IFN-γ ([4]; Table 10, donor 28044): 1000 pg/mL
- IFN-α ([4]; Table 10, donor 28045): 5 pg/mL
- IFN-γ ([4]; Table 10, donor 28045): 234 pg/mL
- IFN-α mean ([4]; Table 10, mean of donors): 27 pg/mL
- IFN-γ mean ([4]; Table 10, mean of donors): 660 pg/mL
- IFN-α ([4]; Table 11, donor 28042): 78 pg/mL
- IFN-γ ([4]; Table 11, donor 28042): 623 pg/mL
- IFN-α ([4]; Table 11, donor 28043): 25 pg/mL
- IFN-γ ([4]; Table 11, donor 28043): 753 pg/mL
- IFN-α ([4]; Table 11, donor 28044): 52 pg/mL
- IFN-γ ([4]; Table 11, donor 28044): 646 pg/mL
- IFN-α ([4]; Table 11, donor 28045): 256 pg/mL
- IFN-γ ([4]; Table 11, donor 28045): 604 pg/mL
- IFN-α mean ([4]; Table 11, mean of donors): 103 pg/mL
- IFN-γ mean ([4]; Table 11, mean of donors): 656 pg/mL
- IFN-α ([4]; Table 13, donor 28156): 102 pg/mL
- IFN-γ ([4]; Table 13, donor 28156): 1612 pg/mL
- IFN-α ([4]; Table 13, donor 28157): 755 pg/mL
- IFN-γ ([4]; Table 13, donor 28157): 742 pg/mL
- IFN-α ([4]; Table 13, donor 28158): 61 pg/mL
- IFN-γ ([4]; Table 13, donor 28158): 340 pg/mL
- IFN-α ([4]; Table 13, donor 28159): 160 pg/mL
- IFN-γ ([4]; Table 13, donor 28159): 197 pg/mL
- IFN-α mean ([4]; Table 13, mean of donors): 270 pg/mL
- IFN-γ mean ([4]; Table 13, mean of donors): 723 pg/mL
- IFN-α ([4]; donor 110, Table 14): 196 pg/mL
- IFN-γ ([4]; donor 110, Table 14): 1152 pg/mL
- IFN-α ([4]; donor 112, Table 14): 30 pg/mL
- IFN-γ ([4]; donor 112, Table 14): 540 pg/mL
- IFN-α ([4]; donor 119, Table 14): 264 pg/mL
- IFN-γ ([4]; donor 119, Table 14): 136 pg/mL
- IFN-α ([4]; donor 120, Table 14): 42 pg/mL
- IFN-γ ([4]; donor 120, Table 14): 48 pg/mL
- IFN-γ (pg/ml) 28065 ([4]; donor 28065 (high background), 20 ug/ml, 24 h, + PLGA = premixed with 100 μg/ml cPLGA, 1000 = outside assay limits): 1000 pg/mL
- IFN-α (pg/ml) 28065 ([4]; donor 28065, 20 ug/ml, 24 h, + PLGA = premixed with 100 μg/ml cPLGA): 123 pg/mL
- IFN-α (pg/ml) 28066 [4, 5]: 6 pg/mL
- IFN-γ (pg/ml) 28066 [4, 5]: 19 pg/mL
- IFN-α (pg/ml) 28067 [4, 6]: 96 pg/mL
- IFN-γ (pg/ml) 28067 [4, 6]: 56 pg/mL
- IFN-α (pg/ml) 28068 [4, 7]: 358 pg/mL
- IFN-γ (pg/ml) 28068 [4, 7]: 419 pg/mL
- IFN-a ([4]; donor 28185, Table 15): 196 pg/mL
- IFN-g ([4]; donor 28185, Table 15): 154 pg/mL
- IFN-a ([4]; donor 28186, Table 15): 31 pg/mL
- IFN-g ([4]; donor 28186, Table 15): 25 pg/mL
- IFN-a ([4]; donor 28187, Table 15): 202 pg/mL
- IFN-g ([4]; donor 28187, Table 15): 123 pg/mL
- IFN-a ([4]; donor 28188, Table 15): 4 pg/mL
- IFN-g ([4]; donor 28188, Table 15): 9 pg/mL
- IFN-α (pg/ml) mean [4, 8]: 827 pg/mL
- IFN-γ (pg/ml) mean [4, 8]: 1306 pg/mL
- IFN-α mean [4, 9]: 39
- IFN-γ mean [4, 9]: 102
- IFN-α (pg/ml) mean [4, 10]: 133 pg/mL
- IFN-γ (pg/ml) mean [4, 10]: 469 pg/mL
- IFN-α (pg/ml) mean [4, 11]: 146 pg/mL
- IFN-γ (pg/ml) mean [4, 11]: 373 pg/mL
- IFN-a (pg/ml) mean [4, 12]: 108 pg/mL
- IFN-g (pg/ml) mean [4, 12]: 78 pg/mL
- IFN-a (pg/ml) ×2 ([4]; mean ×2, Table 15): 217 pg/mL
- IFN-g (pg/ml) ×4 ([4]; mean ×4, Table 15): 311 pg/mL
- immunomodulatory activity (IFN-γ / IFN-α secretion), in words ([4]; used alone (no cPLGA)): more active than other CG-containing CICs; also recorded: most active CICs
